Results: US20120202690A1, “HERBICIDAL COMPOUNDS” (SYNGENTA LIMITED, priority 2009, published 2012)

Key:
Type in all cases: in vivo
[1] = test system: Alopecurus myosuroides (ALOMY); assay: Pre-emergence biological efficacy, glasshouse, 1000 g/ha, evaluated after 13 days (100=total damage to plant; 0=no damage to plant); settings: Alopecurus myosuroides, 312 h, rate 1,000 g/ha, read-out: Percentage damage caused to weed species, pre-emergence, ALOMY
Outline: (§1)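 Sowing: standard soil, pots. Growth: glasshouse, 24/16° C. day/night, 14 hours light, 65% humidity. Watering: twice daily.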

[2] = test system: Amaranthus retroflexus (AMARE); assay: as above; settings: Amaranthus retroflexus, 312 h, rate 1,000 g/ha, read-out: Percentage damage caused to weed species, pre-emergence, AMARE
Outline: as §1

[3] = test system: Echinochloa crus-galli (ECHCG); assay: as above; settings: Echinochloa crus-galli, 312 h, rate 1,000 g/ha, read-out: Percentage damage caused to weed species, pre-emergence, ECHCG
Outline: as §1

[4] = test system: Ipomoea hederaceae (IPOHE); assay: as above; settings: Ipomoea, 312 h, rate 1,000 g/ha, read-out: Percentage damage caused to weed species, pre-emergence, IPOHE
Outline: as §1

Setaria faberi (SETFA) [5] = assay: as above; settings: Setaria faberi, 312 h, rate 1,000 g/ha, read-out: Percentage damage caused to weed species, pre-emergence, SETFA
Outline: as §1

Solanum nigrum (SOLNI) [6] = assay: as above; settings: Solanum nigrum, 312 h, rate 1,000 g/ha, read-out: Percentage damage caused to weed species, pre-emergence, SOLNI
Outline: as §1

[7] = test system: Alopecurus myosuroides (ALOMY); assay: Post-emergence biological efficacy, glasshouse, 500 or 1000 g/ha, evaluated after 13 days (100=total damage to plant; 0=no damage to plant); settings: Alopecurus myosuroides, 312 h, rate 1,000 g/ha, read-out: Percentage damage caused to weed species, post-emergence, ALOMY
Outline: (§2)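 Standard soil, potted from seed; post-emergence treatment; glasshouse 24/16° C. (day/night), 14 h light, 65% humidity; watering twice daily.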

[8] = test system: Amaranthus retroflexus (AMARE); assay: as above; settings: Amaranthus retroflexus, 312 h, rate 1,000 g/ha, read-out: Percentage damage caused to weed species, post-emergence, AMARE
Outline: as §2

[9] = test system: Echinochloa crusgaffi (ECHCG); assay: as above; settings: Echinochloa, 312 h, rate 1,000 g/ha, read-out: Percentage damage caused to weed species, post-emergence, ECHCG
Outline: as §2

[10] = test system: Ipomoea hederaceae (IPOHE); assay: as above; settings: Ipomoea, 312 h, rate 1,000 g/ha, read-out: Percentage damage caused to weed species, post-emergence, IPOHE
Outline: as §2

Setaria faberi (SETFA) [11] = assay: as above; settings: Setaria faberi, 312 h, rate 1,000 g/ha, read-out: Percentage damage caused to weed species, post-emergence, SETFA
Outline: as §2

Solanum nigrum (SOLNI) [12] = assay: as above; settings: Solanum nigrum, 312 h, rate 1,000 g/ha, read-out: Percentage damage caused to weed species, post-emergence, SOLNI
Outline: as §2

Compound: COCCOCCOC(=O)c1nc(-c2ccc(Cl)c(OC)c2F)cc2[nH]cc(C)c12 [Compound 22-85, 6-(4-Chloro-2-fluoro-3-methoxyphenyl)-4-{2-[(2-methoxy)-ethoxy]-ethoxycarbonyl}-3-methyl-1H-pyrrolo[3,2-c]pyridine]
- pest or weed control at 1000 g/ha [1]: 10%
- pest or weed control at 1000 g/ha [2]: 100%
- pest or weed control at 1000 g/ha [3]: 10%
- pest or weed control at 1000 g/ha [4]: 80%
- pest or weed control at 1000 g/ha (Setaria faberi (SETFA) [5]): 10%
- pest or weed control at 1000 g/ha (Solanum nigrum (SOLNI) [6]): 100%
- pest or weed control at 1000 g/ha [7]: 30%
- pest or weed control at 1000 g/ha [8]: 90%
- pest or weed control at 1000 g/ha [9]: 20%
- pest or weed control at 1000 g/ha [10]: 40%
- pest or weed control at 1000 g/ha (Setaria faberi (SETFA) [11]): 20%
- pest or weed control at 1000 g/ha (Solanum nigrum (SOLNI) [12]): 90%

Compound: COc1c(Cl)ccc(-c2cc3[nH]cc(C)c3c(C(=O)OCc3ccccc3)n2)c1F [Compound 22-86, 4-Benzyloxycarbonyl-6-(4-chloro-2-fluoro-3-methoxyphenyl)-3-methyl-1H-pyrrolo[3,2-c]pyridine]
- pest or weed control at 1000 g/ha [1]: 0%
- pest or weed control at 1000 g/ha [2]: 0%
- pest or weed control at 1000 g/ha [3]: 0%
- pest or weed control at 1000 g/ha [4]: 0%
- pest or weed control at 1000 g/ha (Setaria faberi (SETFA) [5]): 0%
- pest or weed control at 1000 g/ha (Solanum nigrum (SOLNI) [6]): 10%
- pest or weed control at 1000 g/ha [7]: 10%
- pest or weed control at 1000 g/ha [8]: 40%
- pest or weed control at 1000 g/ha [9]: 10%
- pest or weed control at 1000 g/ha [10]: 40%
- pest or weed control at 1000 g/ha (Setaria faberi (SETFA) [11]): 0%
- pest or weed control at 1000 g/ha (Solanum nigrum (SOLNI) [12]): 70%

Compound: COc1c(Cl)ccc(-c2cc3[nH]cc(C)c3c(C(=O)OCc3ccco3)n2)c1F [Compound 22-87, 6-(4-Chloro-2-fluoro-3-methoxyphenyl)-4-(2-furanyl-methoxycarbonyl)-3-methyl-1H-pyrrolo[3,2-c]pyridine]
- pest or weed control at 1000 g/ha [1]: 10%
- pest or weed control at 1000 g/ha [2]: 20%
- pest or weed control at 1000 g/ha [3]: 10%
- pest or weed control at 1000 g/ha [4]: 80%
- pest or weed control at 1000 g/ha (Setaria faberi (SETFA) [5]): 10%
- pest or weed control at 1000 g/ha (Solanum nigrum (SOLNI) [6]): 70%
- pest or weed control at 1000 g/ha [7]: 20%
- pest or weed control at 1000 g/ha [8]: 80%
- pest or weed control at 1000 g/ha [9]: 10%
- pest or weed control at 1000 g/ha [10]: 70%
- pest or weed control at 1000 g/ha (Setaria faberi (SETFA) [11]): 40%
- pest or weed control at 1000 g/ha (Solanum nigrum (SOLNI) [12]): 90%

Compound: COc1c(Cl)ccc(-c2cc3[nH]cc(C)c3c(C(=O)OCC3CCCO3)n2)c1F (stereo not drawn) [Compound 22-88, 6-(4-Chloro-2-fluoro-3-methoxyphenyl)-3-methyl-4-(tetrahydrofuran-2-yl-methoxycarbonyl)-1H-pyrrolo[3,2-c]pyridine]
- pest or weed control at 1000 g/ha [1]: 10%
- pest or weed control at 1000 g/ha [2]: 100%
- pest or weed control at 1000 g/ha [3]: 0%
- pest or weed control at 1000 g/ha [4]: 50%
- pest or weed control at 1000 g/ha (Setaria faberi (SETFA) [5]): 10%
- pest or weed control at 1000 g/ha (Solanum nigrum (SOLNI) [6]): 100%
- pest or weed control at 1000 g/ha [7]: 30%
- pest or weed control at 1000 g/ha [8]: 80%
- pest or weed control at 1000 g/ha [9]: 20%
- pest or weed control at 1000 g/ha [10]: 60%
- pest or weed control at 1000 g/ha (Setaria faberi (SETFA) [11]): 40%
- pest or weed control at 1000 g/ha (Solanum nigrum (SOLNI) [12]): 90%

Compound: COC(=O)c1nc(Cl)cc2[nH]ccc12 [Compound 22-122, 6-chloro-4-methoxycarbonyl-1H-pyrrolo[3,2-c]pyridine]
- pest or weed control at 1000 g/ha [1]: 0%
- pest or weed control at 1000 g/ha [2]: 0%
- pest or weed control at 1000 g/ha [3]: 0%
- pest or weed control at 1000 g/ha [4]: 0%
- pest or weed control at 1000 g/ha (Setaria faberi (SETFA) [5]): 0%
- pest or weed control at 1000 g/ha (Solanum nigrum (SOLNI) [6]): 0%
- pest or weed control at 1000 g/ha [7]: 0%
- pest or weed control at 1000 g/ha [8]: 60%
- pest or weed control at 1000 g/ha [9]: 0%
- pest or weed control at 1000 g/ha [10]: 10%
- pest or weed control at 1000 g/ha (Setaria faberi (SETFA) [11]): 0%
- pest or weed control at 1000 g/ha (Solanum nigrum (SOLNI) [12]): 20%

Compound: COC(=O)c1nc(Cl)cc2[nH]cc(C)c12 [Compound 22-124, 6-chloro-4-methoxycarbonyl-3-methyl-1H-pyrrolo[3,2-c]pyridine]
- pest or weed control at 1000 g/ha [1]: 70%
- pest or weed control at 1000 g/ha [2]: 100%
- pest or weed control at 1000 g/ha [3]: 20%
- pest or weed control at 1000 g/ha [4]: 100%
- pest or weed control at 1000 g/ha (Setaria faberi (SETFA) [5]): 30%
- pest or weed control at 1000 g/ha (Solanum nigrum (SOLNI) [6]): 100%
- pest or weed control at 1000 g/ha [7]: 30%
- pest or weed control at 1000 g/ha [8]: 80%
- pest or weed control at 1000 g/ha [9]: 20%
- pest or weed control at 1000 g/ha [10]: 80%
- pest or weed control at 1000 g/ha (Setaria faberi (SETFA) [11]): 40%
- pest or weed control at 1000 g/ha (Solanum nigrum (SOLNI) [12]): 90%

Compound: COC(=O)c1nc(Cl)cc2[nH]cc(Cl)c12 [Compound 22-132, 3,6-dichloro-4-methoxycarbonyl-1H-pyrrolo[3,2-c]pyridine]
- pest or weed control at 1000 g/ha [1]: 0%
- pest or weed control at 1000 g/ha [2]: 0%
- pest or weed control at 1000 g/ha [3]: 0%
- pest or weed control at 1000 g/ha [4]: 40%
- pest or weed control at 1000 g/ha (Setaria faberi (SETFA) [5]): 0%
- pest or weed control at 1000 g/ha (Solanum nigrum (SOLNI) [6]): 10%
- pest or weed control at 1000 g/ha [7]: 0%
- pest or weed control at 1000 g/ha [8]: 50%
- pest or weed control at 1000 g/ha [9]: 0%
- pest or weed control at 1000 g/ha [10]: 50%
- pest or weed control at 1000 g/ha (Setaria faberi (SETFA) [11]): 0%
- pest or weed control at 1000 g/ha (Solanum nigrum (SOLNI) [12]): 60%

Compound: COC(=O)c1nc(-c2ccc(Cl)c(OC)c2F)cc2c1ccn2Cc1ccco1 [Compound 32-62, 6-(4-Chloro-2-fluoro-3-methoxyphenyl)-1-(2-furanyl-methyl)-4-methoxycarbonyl-1H-pyrrolo[3,2-c]pyridine]
- pest or weed control at 1000 g/ha [1]: 30%
- pest or weed control at 1000 g/ha [2]: 80%
- pest or weed control at 1000 g/ha [3]: 30%
- pest or weed control at 1000 g/ha [4]: 20%
- pest or weed control at 1000 g/ha (Setaria faberi (SETFA) [5]): 20%
- pest or weed control at 1000 g/ha (Solanum nigrum (SOLNI) [6]): 80%
- pest or weed control at 1000 g/ha [7]: 10%
- pest or weed control at 1000 g/ha [8]: 80%
- pest or weed control at 1000 g/ha [9]: 50%
- pest or weed control at 1000 g/ha [10]: 70%
- pest or weed control at 1000 g/ha (Setaria faberi (SETFA) [11]): 40%
- pest or weed control at 1000 g/ha (Solanum nigrum (SOLNI) [12]): 80%

Compound: COC(=O)c1nc(-c2ccc(Cl)c(OC)c2F)cc2c1c(C)cn2C(=O)C(C)(C)C [Compound 37-64, 1-t-Butylcarbonyl-6-(4-chloro-2-fluoro-3-methoxyphenyl)-4-methoxycarbonyl-3-methyl-1H-pyrrolo[3,2-c]pyridine]
- pest or weed control at 1000 g/ha [1]: 0%
- pest or weed control at 1000 g/ha [2]: 0%
- pest or weed control at 1000 g/ha [3]: 0%
- pest or weed control at 1000 g/ha [4]: 0%
- pest or weed control at 1000 g/ha (Setaria faberi (SETFA) [5]): 0%
- pest or weed control at 1000 g/ha (Solanum nigrum (SOLNI) [6]): 0%
- pest or weed control at 1000 g/ha [7]: 0%
- pest or weed control at 1000 g/ha [8]: 0%
- pest or weed control at 1000 g/ha [9]: 0%
- pest or weed control at 1000 g/ha [10]: 40%
- pest or weed control at 1000 g/ha (Setaria faberi (SETFA) [11]): 0%
- pest or weed control at 1000 g/ha (Solanum nigrum (SOLNI) [12]): 50%

Compound: COC(=O)c1nc(-c2ccc(Cl)c(OC)c2F)cc2c1c(C)cn2C(=O)OC [Compound 38-64, 6-(4-Chloro-2-fluoro-3-methoxyphenyl)-1,4-di(methoxycarbonyl)-3-methyl-1H-pyrrolo[3,2-c]pyridine]
- pest or weed control at 1000 g/ha [1]: 0%
- pest or weed control at 1000 g/ha [2]: 0%
- pest or weed control at 1000 g/ha [3]: 0%
- pest or weed control at 1000 g/ha [4]: 0%
- pest or weed control at 1000 g/ha (Setaria faberi (SETFA) [5]): 0%
- pest or weed control at 1000 g/ha (Solanum nigrum (SOLNI) [6]): 0%
- pest or weed control at 1000 g/ha [7]: 10%
- pest or weed control at 1000 g/ha [8]: 0%
- pest or weed control at 1000 g/ha [9]: 0%
- pest or weed control at 1000 g/ha [10]: 20%
- pest or weed control at 1000 g/ha (Setaria faberi (SETFA) [11]): 10%
- pest or weed control at 1000 g/ha (Solanum nigrum (SOLNI) [12]): 10%
